From Sander's compilation of Henry's law constants (doi:10.1213/00000539-199904000-00035)

Assay: Henry solubility constant Hcp at 310 K (mol/(m3 Pa))
Conditions: reference: Eger et al. (1999)

Structure (SMILES) | Henry solubility constant Hcp at 310 K
CC(O)(C(F)(F)F)C(F)(F)F [1,1,1,3,3,3-hexafluoro-2-methyl-2-propanol] | 0.018
OC(C(F)(F)F)C(F)(F)F [1,1,1,3,3,3-hexafluoro-2-propanol] | 0.1
CC(O)C(F)(F)F (configuration not stated) [1,1,1-trifluoro-2-propanol] | 0.13
CCCCCCO [1-hexanol] | 0.35
CCCCCCCCO [1-octanol] | 0.27
OCCC(F)(F)C(F)(F)C(F)(F)C(F)(F)C(F)(F)C(F)(F)F [1H,1H,2H,2H-perfluoro-1-octanol] | 0.00094
OCC(F)(F)F [2,2,2-trifluoroethanol] | 0.43
OCC(F)(F)C(F)(F)F [2,2,3,3,3-pentafluoro-1-propanol] | 0.069
OCC(F)(F)C(F)(F)C(F)(F)C(F)(F)C(F)(F)F [2,2,3,3,4,4,5,5,6,6,6-undecafluoro-1-hexanol] | 0.0017
OCC(F)(F)C(F)(F)C(F)(F)C(F)(F)C(F)(F)C(F)(F)F [2,2,3,3,4,4,5,5,6,6,7,7,7-tridecafluoro-1-heptanol] | 0.0006
OCC(F)(F)C(F)(F)C(F)(F)C(F)(F)C(F)(F)C(F)(F)C(F)(F)F [2,2,3,3,4,4,5,5,6,6,7,7,8,8,8-pentadecafluoro-1-octanol] | 0.00023
OCC(F)(F)C(F)(F)C(F)(F)C(F)(F)C(F)(F)C(F)F [2,2,3,3,4,4,5,5,6,6,7,7-dodecafluoro-1-heptanol] | 0.064
OCC(F)(F)C(F)(F)C(F)(F)C(F)F [2,2,3,3,4,4,5,5-octafluoro-1-pentanol] | 0.25
OCC(F)(F)C(F)F [2,2,3,3-tetrafluoro-1-propanol] | 0.75
OCC(F)(F)C(F)C(F)(F)F (configuration not stated) [2,2,3,4,4,4-hexafluoro-1-butanol] | 0.32
CC(O)C(F)(F)C(F)(F)C(F)(F)F (configuration not stated) [3,3,4,4,5,5,5-heptafluoro-2-pentanol] | 0.009
CCO [ethanol] | 1
